Data as given in patent publication EP0745595A1, “3-(3-Aryloxyphenyl)-1-(substituted methyl)-s-triazine-2,4,6-oxo or thiotrione herbicidal agents” (American Cyanamid Company, priority 1995, dated 1996).

Legend:
Format in all cases: in vivo
[1] = test system: SAGITTARIA PYGMAEA, L.; assay: Preemergence weed control under flooded paddy conditions, SAGPY (Arrowhead (Pygmaea)); conditions: preemergence, 3-4 weeks after treatment
Outline: (§1)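 Flooded paddy preemergence test: seeds/propagating organs in top 0.5 cm silt loam, water held 1.5-3 cm above soil. Dosing by pipette into flood water, aqueous/acetone 50/50 v/v, ~0.5, 0.25, 0.125, 0.063 kg/ha a.i. Greenhouse; read at 3-4 wk, 0-9 visual scale.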

[2] = test system: ORYZA SATIVA, L. TEBONNET; assay: Preemergence herbicidal evaluation, ORYSAT (Rice, Tebonnet); conditions: rated four to five weeks after treatment
Outline: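 Seeds of rice (Oryza sativa, Tebonnet) were mixed with potting soil and sown on about one inch of soil in pint cups, then treated preemergence. Cups sat on greenhouse benches, watered and tended by standard greenhouse practice. Four to five weeks after treatment, plants were visually scored on a 0-9 scale relative to a control.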

[3] = test system: ZEA MAYS L.; assay: Preemergence herbicidal evaluation, ZEAMX (Corn, Field); conditions: rated four to five weeks after treatment
Outline: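 Corn (Zea mays) seeds were mixed with potting soil and planted on about one inch of soil in pint cups, then treated preemergence. Cups were kept on greenhouse benches, watered and maintained conventionally, and after four to five weeks were visually rated on a 0-9 scale versus an untreated control.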

[4] = test system: IPOMOEA SPP.; assay: Preemergence herbicidal evaluation, IPOSS (Morningglory spp.); conditions: rated four to five weeks after treatment
Outline: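 Seeds of morningglory (Ipomoea spp.) were mixed with potting soil and sown on roughly one inch of soil in pint cups for a preemergence herbicide test. The cups were put on greenhouse benches, watered, and maintained by standard greenhouse practice. Four to five weeks after treatment each cup was scored visually on a 0-9 scale against a control.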

[5] = test system: ECHINOCHLOA CRUS-GALLI, (L) BEAU; assay: Preemergence herbicidal evaluation, ECHCG (Barnyardgrass); conditions: rated four to five weeks after treatment
Outline: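 Barnyardgrass seeds were mixed with potting soil and planted on about one inch of soil in pint cups for preemergence testing. Treated cups were kept on greenhouse benches, watered and maintained by standard greenhouse practice. After four to five weeks, each cup was visually rated on a 0-9 scale against an untreated control.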

[6] = test system: AMBROSIA ARTEMISIIFOLIA, L.; assay: Preemergence herbicidal evaluation, AMBEL (Ragweed, Common); conditions: rated four to five weeks after treatment
Outline: (§2)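 Seeds mixed with potting soil were planted on about one inch of soil in cups, then sprayed with aqueous acetone solution of test compound at about 0.125 to 0.50 kg per hectare. Plants grown under greenhouse conditions; visual rating on a 0-9 scale versus untreated control at 4-5 weeks.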

[7] = test system: ABUTILON THEOPHRASTI, MEDIC.; assay: Preemergence herbicidal evaluation, ABUTH (Velvetleaf); conditions: rated four to five weeks after treatment
Outline: as §2

[8] = test system: SETARIA VIRIDIS, (L) BEAU; assay: Preemergence herbicidal evaluation, SETVI (Foxtail, Green); conditions: rated four to five weeks after treatment
Description: Results of herbicide evaluation are expressed on a rating scale (0-9). The scale is based upon a visual observation of plant stand, vigor, malformation, size, chlorosis and overall plant appearance as compared with a control.
The preemergence herbicidal activity of the test compounds of the present invention is exemplified by the following tests in which the seeds of a variety of monocotyledonous and dicotyledonous plants are separately mixed with potting soil and planted on top of approximately one inch of soil in separate pint cups. […] The treated cups are then placed on greenhouse benches, watered and cared for in accordance with conventional greenhouse procedures. From four to five weeks after treatment, the tests are terminated and each cup is examined and rated according to the rating system provided in Example 40.
The compounds evaluated are reported by compound number given in Example 40.

[9] = test system: TRITICUM AESTIVUM, CV. APOLLO; assay: Preemergence herbicidal evaluation, TRZAWO (Wheat, Winter, CV. APOLLO); conditions: rated four to five weeks after treatment
Outline: as §2

[10] = test system: ORYZA SATIVA, L. TEBONNET; assay: Rice tolerance to post-transplant applications under flooded paddy conditions, ORYSAT (Rice, Tebonnet); conditions: post-transplant rice, 3-4 weeks after treatment
Outline: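 Post-transplant paddy test: compound applied 3 d after transplanting to flooded soil (1.5-3 cm water), ~0.063-0.5 kg/ha a.i., 50/50 aq/acetone. Silt loam, 2 × 10-d seedlings/pot. Greenhouse 3-4 wk, visual 0-9 score vs control.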

[11] = test system: GALIUM APARINE; assay: Preemergence herbicidal evaluation, GALAP (Galium); conditions: rated four to five weeks after treatment
Outline: as §2

[12] = test system: CYPERUS SEROTINUS, ROTTB.; assay: Preemergence weed control under flooded paddy conditions, CYPSE (Flatsedge); conditions: preemergence, 3-4 weeks after treatment
Outline: as §1

[13] = test system: CHENOPODIUM ALBUM, L.; assay: Postemergence herbicidal evaluation, CHEAL (Lambsquarters, Common)
Outline: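 Seedlings of common lambsquarters (Chenopodium album) were raised in jiffy flats for roughly two weeks, then sprayed postemergence through a nozzle at 40 psi with test compound dispersed in 50/50 acetone/water containing 0.5% TWEEN®20 surfactant. Plants were kept on greenhouse benches under standard care and rated visually on a 0-9 scale versus controls.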

[14] = test system: GLYCINE MAX(L) MERR. CV. WILLIAMS; assay: Postemergence herbicidal evaluation, GLXMAW (Soybean, Williams); design: key to GLXMAW rating / Herbicidal effect rating, GLXMAW / GLXMAW: 0-9 visual rating scale vs untreated control
Outline: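 Soybean seedlings (Williams) were raised in jiffy flats for roughly two weeks, then sprayed postemergence through a nozzle at 40 psi with test compound dispersed in 50/50 acetone/water containing 0.5% TWEEN®20. Treated plants were kept on greenhouse benches under normal care and visually rated on a 0-9 scale four to five weeks later.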

[15] = test system: GLYCINE MAX(L) MERR. CV. WILLIAMS; assay: Preemergence herbicidal evaluation, GLXMAW (Soybean, Williams); conditions: rated four to five weeks after treatment
Outline: as §2

How did the “Herbicidal effect rating, SAGPY” value ([1]; 0.063 kg/ha) turn out when `COC(=O)Cn1c(=O)n(C)c(=O)n(-c2cc(Oc3ccc([S+](C)[O-])cc3Cl)ccc2[N+](=O)[O-])c1=O` (stereo not drawn) [Compound 36] was run?
Its value is 0.0.

And the “Herbicidal effect rating, SAGPY” value ([1]; 0.125 kg/ha)?
Its value is 0.0.

And the “Herbicidal effect rating, SAGPY” value ([1]; 0.250 kg/ha)?
The value was 0.0.

And the “Herbicidal effect rating, SAGPY” value ([1]; 0.500 kg/ha)?
The value was 0.0.

What about the ORYSAT herbicidal rating ([2]; Rate 0.125 kg/ha) of the same compound?
Its ORYSAT herbicidal rating is 0.0.

What about the ORYSAT herbicidal rating ([2]; Rate 0.250 kg/ha) of the same compound?
Its ORYSAT herbicidal rating is 0.0.

And the ORYSAT herbicidal rating ([2]; Rate 0.500 kg/ha)?
Its ORYSAT herbicidal rating is 0.0.

And the ZEAMX herbicidal rating ([3]; Rate 0.125 kg/ha)?
Its ZEAMX herbicidal rating is 0.0.

What about the ZEAMX herbicidal rating ([3]; Rate 0.250 kg/ha) of the same compound?
Its ZEAMX herbicidal rating is 0.0.

And the ZEAMX herbicidal rating ([3]; Rate 0.500 kg/ha)?
Its ZEAMX herbicidal rating is 0.0.

And the IPOSS herbicidal rating ([4]; Rate 0.125 kg/ha)?
Its IPOSS herbicidal rating is 0.0.

And the IPOSS herbicidal rating ([4]; Rate 0.250 kg/ha)?
Its IPOSS herbicidal rating is 0.0.

And the IPOSS herbicidal rating ([4]; Rate 0.500 kg/ha)?
Its IPOSS herbicidal rating is 0.0.

And the ECHCG herbicidal rating ([5]; Rate 0.125 kg/ha)?
The ECHCG herbicidal rating was 0.0.

And the ECHCG herbicidal rating ([5]; Rate 0.250 kg/ha)?
The ECHCG herbicidal rating was 0.0.

What about the ECHCG herbicidal rating ([5]; Rate 0.500 kg/ha) of the same compound?
Its ECHCG herbicidal rating is 0.0.

What about the AMBEL herbicidal rating ([6]; Rate 0.125 kg/ha) of the same compound?
Its AMBEL herbicidal rating is 0.0.

What about the AMBEL herbicidal rating ([6]; Rate 0.250 kg/ha) of the same compound?
Its AMBEL herbicidal rating is 0.0.

What about the AMBEL herbicidal rating ([6]; Rate 0.500 kg/ha) of the same compound?
Its AMBEL herbicidal rating is 0.0.

What about the ABUTH herbicidal rating ([7]; Rate 0.125 kg/ha) of the same compound?
The ABUTH herbicidal rating was 0.0.

What about the ABUTH herbicidal rating ([7]; Rate 0.250 kg/ha) of the same compound?
The ABUTH herbicidal rating was 0.0.

What about the ABUTH herbicidal rating ([7]; Rate 0.500 kg/ha) of the same compound?
Its ABUTH herbicidal rating is 0.0.

What about the SETVI herbicidal rating ([8]; Rate 0.125 kg/ha) of the same compound?
Its SETVI herbicidal rating is 0.0.

And the SETVI herbicidal rating ([8]; Rate 0.250 kg/ha)?
The SETVI herbicidal rating was 0.0.

And the SETVI herbicidal rating ([8]; Rate 0.500 kg/ha)?
The SETVI herbicidal rating was 0.0.

And the TRZAWO herbicidal rating ([9]; Rate 0.125 kg/ha)?
Its TRZAWO herbicidal rating is 0.0.

And the TRZAWO herbicidal rating ([9]; Rate 0.250 kg/ha)?
The TRZAWO herbicidal rating was 0.0.

What about the TRZAWO herbicidal rating ([9]; Rate 0.500 kg/ha) of the same compound?
Its TRZAWO herbicidal rating is 0.0.

What about the “Herbicidal effect rating, ORYSAT” value ([10]; 0.063 kg/ha) of the same compound?
Its value is 0.0.

What about the “Herbicidal effect rating, ORYSAT” value ([10]; 0.125 kg/ha) of the same compound?
Its value is 0.0.

And the “Herbicidal effect rating, ORYSAT” value ([10]; 0.250 kg/ha)?
The value was 0.0.

What about the “Herbicidal effect rating, ORYSAT” value ([10]; 0.500 kg/ha) of the same compound?
Its value is 0.0.

What about the GALAP herbicidal rating ([11]; Rate 0.125 kg/ha) of the same compound?
The GALAP herbicidal rating was 0.0.

And the GALAP herbicidal rating ([11]; Rate 0.250 kg/ha)?
The GALAP herbicidal rating was 0.0.

And the GALAP herbicidal rating ([11]; Rate 0.500 kg/ha)?
Its GALAP herbicidal rating is 0.0.

What about the “Herbicidal effect rating, CYPSE” value ([12]; 0.063 kg/ha) of the same compound?
Its value is 0.0.

And the “Herbicidal effect rating, CYPSE” value ([12]; 0.125 kg/ha)?
Its value is 0.0.

What about the “Herbicidal effect rating, CYPSE” value ([12]; 0.250 kg/ha) of the same compound?
The value was 0.0.

And the “Herbicidal effect rating, CYPSE” value ([12]; 0.500 kg/ha)?
Its value is 0.0.

And the CHEAL rating ([13]; Rate 0.125 kg/ha)?
The CHEAL rating was 8.0.

And the CHEAL rating ([13]; Rate 0.250 kg/ha)?
The CHEAL rating was 8.0.

What about the CHEAL rating ([13]; Rate 0.500 kg/ha) of the same compound?
Its CHEAL rating is 8.0.

And the GLXMAW rating ([14]; Rate 0.125 kg/ha)?
The GLXMAW rating was 5.0.

What about the GLXMAW rating ([14]; Rate 0.250 kg/ha) of the same compound?
Its GLXMAW rating is 5.0.

What about the GLXMAW rating ([14]; Rate 0.500 kg/ha) of the same compound?
Its GLXMAW rating is 5.0.

And the GLXMAW herbicidal rating ([15]; Rate 0.125 kg/ha)?
Its GLXMAW herbicidal rating is 0.0.

What about the GLXMAW herbicidal rating ([15]; Rate 0.250 kg/ha) of the same compound?
Its GLXMAW herbicidal rating is 0.0.

What about the GLXMAW herbicidal rating ([15]; Rate 0.500 kg/ha) of the same compound?
Its GLXMAW herbicidal rating is 0.0.
